Assay [1] concerns the target T1, full-length beta-Catenin (Uniprot ID P35222) (Homo sapiens, UniProt P35222).
T1 construct: 10 nM full-length beta-Catenin (Uniprot ID P35222)
T1 sequence (P35222 1-781): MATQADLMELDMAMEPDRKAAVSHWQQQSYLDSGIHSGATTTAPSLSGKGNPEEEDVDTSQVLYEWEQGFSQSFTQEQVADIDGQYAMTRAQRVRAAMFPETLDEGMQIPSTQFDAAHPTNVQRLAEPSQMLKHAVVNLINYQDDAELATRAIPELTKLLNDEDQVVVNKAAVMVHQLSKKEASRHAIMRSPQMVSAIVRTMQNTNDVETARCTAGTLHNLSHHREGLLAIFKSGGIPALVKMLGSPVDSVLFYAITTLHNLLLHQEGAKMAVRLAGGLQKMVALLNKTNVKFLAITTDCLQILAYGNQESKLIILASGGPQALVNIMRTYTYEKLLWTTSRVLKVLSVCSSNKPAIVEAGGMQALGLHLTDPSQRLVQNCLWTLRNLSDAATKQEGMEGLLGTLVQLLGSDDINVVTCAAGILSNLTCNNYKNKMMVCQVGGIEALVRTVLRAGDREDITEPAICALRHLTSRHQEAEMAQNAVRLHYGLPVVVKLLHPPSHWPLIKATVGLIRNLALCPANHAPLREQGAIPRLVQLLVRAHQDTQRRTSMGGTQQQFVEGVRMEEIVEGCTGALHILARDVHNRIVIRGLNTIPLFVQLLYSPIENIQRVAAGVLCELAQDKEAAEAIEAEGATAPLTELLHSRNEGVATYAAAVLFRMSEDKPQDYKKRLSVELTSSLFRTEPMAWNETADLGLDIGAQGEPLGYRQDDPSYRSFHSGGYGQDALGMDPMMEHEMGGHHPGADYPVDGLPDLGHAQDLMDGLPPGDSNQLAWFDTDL
As to the kind of experiment: Fluorescence polarization IC50 (beta-catenin / 5FAM-TCF4 10-53 competition). The assay is classed as binding. As to conditions: fluorescence polarization; read-out: beta-Catenin FP IC50. On the technique in general: In fluorescence polarisation assays a small probe gives low polarisation when free and higher when bound to something large.

For assay [2], the target named is T2, beta-catenin/TCF4 engagement (Homo sapiens, UniProt P35222).
T2 construct: expressed in transfected cells; host or cells: HEK293
T2 sequence (P35222 1-781): T1 sequence (P35222 1-781)
As to the kind of experiment: Nano-BRET target engagement assay (B-cat-Halo & TCF4-Luc in HEK293 cells). Type of assay: cell-based. As to conditions: read-out: NanoBRET Abs IC50. In general terms: Bioluminescence resonance energy transfer reports proximity on the nanometre scale.

Assay [3] relates to TCF/LEF luciferase Reporter in DLD1 cells. The experiment in a line: TCF reporter assay (DLD1 TCF/LEF luciferase reporter, Bright-Glo). The assay is classed as cell-based. As to conditions: read-out: DLD1 4% Abs IC50. The essentials: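 Readouts: Bright-Glo luciferase for reporter signal and CellTiter-Glo for cell viability, with absolute IC50 derived. The reporter clone came from lentiviral TCF/LEF-luciferase transduction of DLD1 cells, seeded 5000 cells/well in RPMI with 4% FBS and exposed overnight to serially diluted compounds.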
A general note: Reporter assays use an easily measured gene product as a stand-in for the process of interest.

Another assay concerns COLO320DM cells. Type of assay: cell-based. As to conditions: COLO320DM cells, read-out: COLO320DM Proliferation Abs IC50. In outline:
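COLO320DM cells at 250 cells/well in RPMI-1640 + 4% HI FBS, dosed after 18–22 h with a 7-point […] 1/2 dilution series from 20 uM down to 313 nM.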

The mark [4] stands for this setting: DLD1 reporter, 4%, absolute IC50.

Where two headings read alike, the source gives them in different places. Where only a bound is given, the exact number is not on record here.

On to `CC(=O)N1CCC[C@]12CC=CCCCC1(CCCC=CCCCOC(=O)N3CC[C@@](C(=O)N[C@@H](Cc4ccsc4)C(=O)N[C@@H](Cc4csc5ccccc45)C(=O)N[C@@H](CCC(N)=O)C(N)=O)(C3)NC(=O)[C@H](CC(C)C)NC(=O)[C@H](Cc3ccccc3)NC(=O)[C@H](C)NC(=O)[C@H](C)NC(=O)[C@H](Cc3cccc(C(=O)O)c3)NC(=O)[C@H](CC(=O)O)NC1=O)NC(=O)[C@H](CC(C)(C)C)NC(=O)[C@H](CC(=O)O)NC2=O` (stereo partly drawn) [I-1462, Ac-PL3-Asp-Npg-B5-Asp-3COOHF-Ala-Ala-Phe-Leu-PyrS2-3Thi-BztA-Gln-NH2], for which the IC50 in assay [1] worked out at 8 nM; in assay [2] (absolute IC50), 2300 nM; in assay [3] (setting [4]) it was 2700 nM; with COLO320DM cells (absolute IC50), 8400 nM.
Regarding `CC(=O)N1CCC[C@]12CC=CCCCC1(CCCC=CCCCOC(=O)N3CC[C@@](C(=O)N[C@@H](Cc4ccccc4Cl)C(=O)N[C@@H](Cc4csc5ccccc45)C(=O)N[C@@H](CC(N)=O)C(=O)N[C@@H](C)C(=O)N[C@@H](C)C(=O)N[C@H](C)C(N)=O)(C3)NC(=O)[C@H](CC(C)C)NC(=O)[C@H](Cc3ccccc3)NC(=O)[C@H](C)NC(=O)[C@H](C)NC(=O)[C@H](Cc3cccc(C(=O)O)c3)NC(=O)[C@H](CC(=O)O)NC1=O)NC(=O)[C@H](CC(C)(C)C)NC(=O)[C@H](CC(=O)O)NC2=O` (stereo partly drawn) [I-2041, Ac-PL3-Asp-Npg-B5-Asp-3COOHF-Ala-Ala-Phe-Leu-PyrS2-2C1F-BztA-Asn-Ala-Ala-dAla-NH2], the IC50 in assay [1] was 16 nM; in assay [2], 2300 nM; in assay [3] (DLD1 4%), 1900 nM; in the assay on COLO320DM cells, greater than 20000 nM.
Taken in the same sequence, the figures for `CC(=O)N1CCC[C@]12CC=CCCCC1(CCCC=CCCCOC(=O)N3CC[C@@](C(=O)N[C@@H](Cc4ccsc4)C(=O)N[C@@H](Cc4csc5ccccc45)C(=O)N[C@@H](CC(N)=O)C(N)=O)(C3)NC(=O)[C@H](CC(C)C)NC(=O)[C@H](Cc3ccccc3)NC(=O)[C@H](C)NC(=O)[C@H](C)NC(=O)[C@H](Cc3cccc(C(=O)O)c3)NC(=O)[C@H](CC(=O)O)NC1=O)NC(=O)[C@H](CC(C)(C)C)NC(=O)[C@H](CC(=O)O)NC2=O` (stereo partly drawn) [I-2043, Ac-PL3-Asp-Npg-B5-Asp-3COOHF-Ala-Ala-Phe-Leu-PyrS2-3Thi-BztA-Asn-NH2] were 8 nM, 2800 nM, 1000 nM and 15200 nM.
Take `CC(=O)N1CCN(C(=O)CC[C@@H]2NC(=O)[C@H](Cc3cccc(C(=O)O)c3)NC(=O)[C@H](CC(=O)O)NC(=O)C3(CCCC=CCCCOC(=O)N4CC[C@@](C(=O)N[C@@H](Cc5ccccc5C(F)(F)F)C(=O)N[C@@H](Cc5csc6ccccc56)C(=O)N[C@@H](C)C(N)=O)(C4)NC(=O)[C@H](CC(C)C)NC(=O)[C@H](Cc4ccccc4)NC(=O)[C@H](C)NC2=O)CCCC=CC[C@]2(CCCN2C(C)=O)C(=O)N[C@@H](CC(=O)O)C(=O)N[C@@H](CC(C)(C)C)C(=O)N3)CC1` (stereo partly drawn) [I-2319, Ac-PL3-Asp-Npg-B5-Asp-3COOHF-[AcPpz]GlnR-Ala-Phe-Leu-PyrS2-2F3MeF-BztA-Ala-NH2]: the IC50 was 5 nM in assay [1], 1000 nM in assay [2] (absolute IC50), 1700 nM in assay [3] (setting [4]) and greater than 20000 nM in the assay on COLO320DM cells (absolute IC50).
Consider `CC(=O)N1CCC[C@]12CC=CCCCC1(CCCC=CCCCOC(=O)N3CC[C@@](C(=O)N[C@@H](Cc4ccccc4C(F)(F)F)C(=O)N[C@@H](Cc4csc5ccccc45)C(=O)N[C@@H](CO)C(N)=O)(C3)NC(=O)[C@H](CC(C)C)NC(=O)[C@H](Cc3ccccc3)NC(=O)[C@H](C)NC(=O)[C@H](C)NC(=O)[C@H](Cn3cc(CC(C)(C)C(=O)O)nn3)NC(=O)[C@H](CC(=O)O)NC1=O)NC(=O)[C@H](CC(C)(C)C)NC(=O)[C@H](CC(=O)O)NC2=O` (stereo partly drawn) [I-2372, Ac-PL3-Asp-Npg-B5-Asp-[CH2CMe2CO2H]TriAzDap-Ala-Ala-Phe-Leu-PyrS2-2F3MeF-BztA-Ser-NH2], for which the IC50 in assay [1] was 5 nM; in assay [2] (absolute IC50), 2600 nM; in assay [3] (setting [4]), 2100 nM; in the assay on COLO320DM cells (absolute IC50) it was 7000 nM.
Taken in the same sequence, the figures for `CC(=O)N1CCC[C@]12CC=CCCCC1(CCCC=CCCCOC(=O)N3CC[C@@](C(=O)N[C@@H](Cc4ccccc4C(F)(F)F)C(=O)N[C@@H](Cc4csc5ccccc45)C(=O)N[C@@H](CCC(N)=O)C(=O)N[C@@H](CC(C)C)C(=O)N[C@@H](Cc4ccccc4)C(N)=O)(C3)NC(=O)[C@H](CC(C)C)NC(=O)[C@H](Cc3ccccc3)NC(=O)[C@H](C)NC(=O)[C@H](C)NC(=O)[C@H](Cc3cccc(C(=O)O)c3)NC(=O)[C@H](CC(=O)O)NC1=O)NC(=O)[C@H](CC(C)(C)C)NC(=O)[C@H](CC(=O)O)NC2=O` (stereo partly drawn) [I-2381, Ac-PL3-Asp-Npg-B5-Asp-3COOHF-Ala-Ala-Phe-Leu-PyrS2-2F3MeF-BztA-Gln-Leu-Phe-NH2] were 1470 nM, 2100 nM, 1100 nM and greater than 20000 nM.
Take `CC(=O)N1CCC[C@]12CC=CCCCC1(CCCC=CCCCOC(=O)N3CC[C@@](C(=O)N[C@@H](Cc4ccccc4C(F)(F)F)C(=O)N[C@@H](Cc4csc5ccccc45)C(=O)N[C@@H](CCC(N)=O)C(=O)N[C@@H](CC(C)C)C(=O)N[C@@H](Cc4c[nH]c5ccccc45)C(N)=O)(C3)NC(=O)[C@H](CC(C)C)NC(=O)[C@H](Cc3ccccc3)NC(=O)[C@H](C)NC(=O)[C@H](C)NC(=O)[C@H](Cc3cccc(C(=O)O)c3)NC(=O)[C@H](CC(=O)O)NC1=O)NC(=O)[C@H](CC(C)(C)C)NC(=O)[C@H](CC(=O)O)NC2=O` (stereo partly drawn) [I-2394, Ac-PL3-Asp-Npg-B5-Asp-3COOHF-Ala-Ala-Phe-Leu-PyrS2-2F3MeF-BztA-Gln-Leu-Trp-NH2]: the IC50 in assay [1] is 535 nM; in assay [2] (absolute IC50) it was 2200 nM; in assay [3] (setting [4]), 700 nM; in the assay with COLO320DM cells (absolute IC50), greater than 20000 nM.
Regarding `CC[C@@H]1NC(=O)[C@H](Cc2ccccc2)NC(=O)[C@H](C)NC(=O)C(C)(C)NC(=O)[C@H](Cc2cccc(C(=O)O)c2)NC(=O)[C@H](CC(=O)O)NC(=O)C2(CCCC=CCCCOC(=O)N3CC[C@@](C(=O)N[C@@H](Cc4ccccc4C(F)(F)F)C(=O)N[C@@H](Cc4csc5ccccc45)C(=O)N[C@@H](CCC(=O)N(C)C)C(=O)N[C@@H](C)C(N)=O)(C3)NC1=O)CCCC=CC[C@]1(CCCN1C(C)=O)C(=O)N[C@@H](CC(=O)O)C(=O)N[C@@H](CC(C)(C)C)C(=O)N2` (stereo partly drawn) [I-2468, Ac-PL3-Asp-Npg-B5-Asp-3COOHF-Aib-Ala-Phe-Abu-PyrS2-2F3MeF-BztA-Me2Gln-Ala-NH2], the IC50 was 38 nM in assay [1], 6200 nM in assay [2] (absolute IC50), 6400 nM in assay [3] (setting [4]) and greater than 20000 nM with COLO320DM cells (absolute IC50).
Taken in the same sequence, the figures for `CC[C@@H]1NC(=O)[C@H](Cc2ccccc2)NC(=O)[C@H](C)NC(=O)C(C)(C)NC(=O)[C@H](Cc2cccc(C(=O)O)c2)NC(=O)[C@H](CC(=O)O)NC(=O)C2(CCCC=CCCCOC(=O)N3CC[C@@](C(=O)N[C@@H](Cc4ccsc4)C(=O)N[C@@H](Cc4csc5ccccc45)C(=O)N[C@@H](CCC(=O)N(C)C)C(=O)N[C@@H](C)C(N)=O)(C3)NC1=O)CCCC=CC[C@]1(CCCN1C(C)=O)C(=O)N[C@@H](CC(=O)O)C(=O)N[C@@H](CC(C)(C)C)C(=O)N2` (stereo partly drawn) [I-2469, Ac-PL3-Asp-Npg-B5-Asp-3COOHF-Aib-Ala-Phe-Abu-PyrS2-3Thi-BztA-Me2Gln-Ala-NH2] were 7 nM, 2300 nM, 600 nM and 5600 nM.
`CC(=O)NCCCC[C@@H]1NC(=O)[C@H](Cc2ccccc2)NC(=O)[C@H](C)NC(=O)C(C)(C)NC(=O)[C@H](Cc2cccc(C(=O)O)c2)NC(=O)[C@H](CC(=O)O)NC(=O)C2(CCCC=CCCCOC(=O)N3CC[C@@](C(=O)N[C@@H](Cc4ccsc4)C(=O)N[C@@H](Cc4csc5ccccc45)C(=O)N[C@@H](C)C(=O)N[C@@H](C)C(N)=O)(C3)NC1=O)CCCC=CC[C@]1(CCCN1C(C)=O)C(=O)N[C@@H](CC(=O)O)C(=O)N[C@@H](CC(C)(C)C)C(=O)N2` (stereo partly drawn) [I-2578, Ac-PL3-Asp-Npg-B5-Asp-3COOHF-Aib-Ala-Phe-AcLys-PyrS2-3Thi-BztA-Ala-Ala-NH2]: the IC50 in assay [1] is 5 nM; in assay [2] it was 5500 nM; in assay [3] (DLD1 reporter, 4%), 4100 nM; in the assay on COLO320DM cells it was 7700 nM.

The values above are taken from patent publication US20240116985A1, “STAPLED PEPTIDES AND METHODS THEREOF” (priority 2020, published 2024).
